# Measurements as given in patent US10765114B2, “4-amino-6-(pyridyl and 2-substitutedphenyl)-picolinates and 6-amino-2-(pyridyl and 2-substitutedphenyl)-pyrimidine-4-carboxylates and their use as herbicides” (Dow AgroSciences LLC, priority 2013, dated 2020).
# Test system: SEBEX: hemp sesbania, Sesbania exaltata
# Assay: Postemergence Herbicidal Activity in Direct Seeded Rice
# Type: in vivo
# Conditions: 35 g ai/ha, postemergence, direct seeded rice
# Excerpt: (§1) Seeds or nutlets of the desired test plant species were planted in a soil matrix prepared by mixing a loam soil (43 percent silt, 19 percent clay, and 38 percent sand, with a pH of about 8.1 and an organic matter content of about 1.5 percent) and river sand in an 80 to 20 ratio. The soil matrix was contained in plastic pots with a surface area of 139.7 cm^2. When required to ensure good germination and healthy plants, a fungicide treatment and/or other chemical or physical treatment was applied. The plants were grown for 10-17 days in a greenhouse with an approximate 14-h photoperiod which was maintained at about 29° C. during the day and 26° C. during the night. Nutrients and water were added on a regular basis and supplemental lighting was provided with overhead metal halide 1000-Watt lamps as necessary. The plants were employed for testing when they reached the second or third true leaf stage.
# (§2) A weighed amount, determined by the highest rate to be tested, of each test compound was placed in 25 mL glass vials and dissolved in a volume of 97:3 v/v acetone-DMSO to obtain 12× stock solutions. […] The concentrated stock solutions were added to the spray solutions so that the final acetone and DMSO concentrations were 16.2% and 0.5%, respectively. Spray solutions were diluted to the appropriate final concentrations with the addition of 10 mL of an aqueous mixture of 1.5% (v/v) Agri-dex crop oil concentrate. The final spray solutions contained 1.25% (v/v) Agri-dex crop oil concentrate. Compound requirements are based upon a 12 mL application volume at a rate of 187 L/ha. Formulated compounds were applied to the plant material with an overhead Mandel track sprayer equipped with 8002E nozzles calibrated to deliver 187 L/ha over an application area of 0.503 square meters (m^2) at a spray height of 18 inches (43 cm) above average plant canopy height. Control plants were sprayed in the same manner with the solvent blank.
# (§3) The treated plants and control plants were placed in a greenhouse as described above and watered by sub-irrigation to prevent wash-off of the test compounds. After 20-22 days, the condition of the test plants, compared with that of the untreated plants, was determined visually and scored on a scale of 0 to 100 percent where 0 corresponds to no injury and 100 corresponds to complete kill and presented as indicated in Table A.
# (§4) By applying the well-accepted probit analysis as described by J. Berkson in Journal of the American Statistical Society, 48, 565 (1953) and by D. Finney in “Probit Analysis” Cambridge University Press (1952), herbicidal injury of a specific compound at various rates can be used to calculate GR20, GR50, GR80 and GR90 values, which are defined as growth reduction factors that correspond to the effective dose of herbicide required to provide plant growth reduction (GR) of 20 percent, 50 percent, 80 percent and 90 percent, respectively. Probit analysis was applied to data collected from multiple dose rates of individual compounds utilizing the procedures explained in the following examples. The analysis of those dose rates is captured in the following tables
row,SMILES,"Visual Growth Reduction (%) 21 Days After Application, SEBEX"
1,"COC(=O)c1nc(-c2ccc(C(F)(F)F)nc2)c(F)c(N)c1Cl [Compound 59, methyl 4-amino-5-chloro-3-fluoro-6′-(trifluoromethyl)-[2,3′-bipyridine]-6-carboxylate]",A (95-100)

# Same assay, conditions: 70 g ai/ha, postemergence, direct seeded rice
row,SMILES,"Visual Growth Reduction (%) 21 Days After Application, SEBEX"
1,"COC(=O)c1nc(-c2ccc(C(F)(F)F)nc2)c(F)c(N)c1Cl [Compound 59, methyl 4-amino-5-chloro-3-fluoro-6′-(trifluoromethyl)-[2,3′-bipyridine]-6-carboxylate]",A (95-100)

# Same assay, conditions: Growth reduction of 50% of plant growth, probit analysis
row,SMILES,"GR50, SEBEX [g ai/ha]"
1,"COC(=O)c1nc(-c2ccc(C(F)(F)F)nc2)c(F)c(N)c1Cl [Compound 59, methyl 4-amino-5-chloro-3-fluoro-6′-(trifluoromethyl)-[2,3′-bipyridine]-6-carboxylate]",1

# Same assay, conditions: Growth reduction of 80% of plant growth, probit analysis
row,SMILES,"GR80, SEBEX [g ai/ha]"
1,"COC(=O)c1nc(-c2ccc(C(F)(F)F)nc2)c(F)c(N)c1Cl [Compound 59, methyl 4-amino-5-chloro-3-fluoro-6′-(trifluoromethyl)-[2,3′-bipyridine]-6-carboxylate]",1

# Test system: BRAPP: broadleaf signalgrass, Brachiaria platyphylla
# Assay: as above
# Type: in vivo
# Conditions: 35 g ai/ha, postemergence, direct seeded rice
# Excerpt: as §1, §2, §3, §4
row,SMILES,"Visual Growth Reduction (%) 21 Days After Application, BRAPP"
1,"COC(=O)c1nc(-c2ccc(C(F)(F)F)nc2)c(F)c(N)c1Cl [Compound 59, methyl 4-amino-5-chloro-3-fluoro-6′-(trifluoromethyl)-[2,3′-bipyridine]-6-carboxylate]",B (85-94)

# Same assay, conditions: 70 g ai/ha, postemergence, direct seeded rice
row,SMILES,"Visual Growth Reduction (%) 21 Days After Application, BRAPP"
1,"COC(=O)c1nc(-c2ccc(C(F)(F)F)nc2)c(F)c(N)c1Cl [Compound 59, methyl 4-amino-5-chloro-3-fluoro-6′-(trifluoromethyl)-[2,3′-bipyridine]-6-carboxylate]",B (85-94)

# Same assay, conditions: Growth reduction of 50% of plant growth, probit analysis
row,SMILES,"GR50, BRAPP [g ai/ha]"
1,"COC(=O)c1nc(-c2ccc(C(F)(F)F)nc2)c(F)c(N)c1Cl [Compound 59, methyl 4-amino-5-chloro-3-fluoro-6′-(trifluoromethyl)-[2,3′-bipyridine]-6-carboxylate]",3

# Same assay, conditions: Growth reduction of 80% of plant growth, probit analysis
row,SMILES,"GR80, BRAPP [g ai/ha]"
1,"COC(=O)c1nc(-c2ccc(C(F)(F)F)nc2)c(F)c(N)c1Cl [Compound 59, methyl 4-amino-5-chloro-3-fluoro-6′-(trifluoromethyl)-[2,3′-bipyridine]-6-carboxylate]",16

# Test system: ORYSS: Oryza sativa
# Assay: as above
# Type: in vivo
# Conditions: 35 g ai/ha, postemergence, direct seeded rice
# Excerpt: as §1, §2, §3, §4
row,SMILES,"Visual Growth Reduction (%) 21 Days After Application, ORYSS"
1,"COC(=O)c1nc(-c2ccc(C(F)(F)F)nc2)c(F)c(N)c1Cl [Compound 59, methyl 4-amino-5-chloro-3-fluoro-6′-(trifluoromethyl)-[2,3′-bipyridine]-6-carboxylate]",E (45-59)

# Same assay, conditions: 70 g ai/ha, postemergence, direct seeded rice
row,SMILES,"Visual Growth Reduction (%) 21 Days After Application, ORYSS"
1,"COC(=O)c1nc(-c2ccc(C(F)(F)F)nc2)c(F)c(N)c1Cl [Compound 59, methyl 4-amino-5-chloro-3-fluoro-6′-(trifluoromethyl)-[2,3′-bipyridine]-6-carboxylate]",E (45-59)

# Same assay, conditions: Growth reduction of 20% of plant growth, probit analysis
row,SMILES,"GR20, ORYSS [g ai/ha]"
1,"COC(=O)c1nc(-c2ccc(C(F)(F)F)nc2)c(F)c(N)c1Cl [Compound 59, methyl 4-amino-5-chloro-3-fluoro-6′-(trifluoromethyl)-[2,3′-bipyridine]-6-carboxylate]",18

# Test system: CYPSS: sedge including small-flower flatsedge (Cyperus difformis), yellow nutsedge (Cyperus esculentus), rice flatsedge (Cyperus iria)
# Assay: as above
# Type: in vivo
# Conditions: 35 g ai/ha, postemergence, direct seeded rice
# Excerpt: as §1, §2, §3, §4
row,SMILES,"Visual Growth Reduction (%) 21 Days After Application, CYPSS"
1,"COC(=O)c1nc(-c2ccc(C(F)(F)F)nc2)c(F)c(N)c1Cl [Compound 59, methyl 4-amino-5-chloro-3-fluoro-6′-(trifluoromethyl)-[2,3′-bipyridine]-6-carboxylate]",A (95-100)

# Same assay, conditions: 70 g ai/ha, postemergence, direct seeded rice
row,SMILES,"Visual Growth Reduction (%) 21 Days After Application, CYPSS"
1,"COC(=O)c1nc(-c2ccc(C(F)(F)F)nc2)c(F)c(N)c1Cl [Compound 59, methyl 4-amino-5-chloro-3-fluoro-6′-(trifluoromethyl)-[2,3′-bipyridine]-6-carboxylate]",A (95-100)

# Same assay, conditions: Growth reduction of 50% of plant growth, probit analysis
row,SMILES,"GR50, CYPSS [g ai/ha]"
1,"COC(=O)c1nc(-c2ccc(C(F)(F)F)nc2)c(F)c(N)c1Cl [Compound 59, methyl 4-amino-5-chloro-3-fluoro-6′-(trifluoromethyl)-[2,3′-bipyridine]-6-carboxylate]",2

# Same assay, conditions: Growth reduction of 80% of plant growth, probit analysis
row,SMILES,"GR80, CYPSS [g ai/ha]"
1,"COC(=O)c1nc(-c2ccc(C(F)(F)F)nc2)c(F)c(N)c1Cl [Compound 59, methyl 4-amino-5-chloro-3-fluoro-6′-(trifluoromethyl)-[2,3′-bipyridine]-6-carboxylate]",3

# Test system: SCPJU: Japanese bulrush, Schoenoplectus juncoides
# Assay: as above
# Type: in vivo
# Conditions: 35 g ai/ha, postemergence, direct seeded rice
# Excerpt: as §1, §2, §3, §4
row,SMILES,"Visual Growth Reduction (%) 21 Days After Application, SCPJU"
1,"COC(=O)c1nc(-c2ccc(C(F)(F)F)nc2)c(F)c(N)c1Cl [Compound 59, methyl 4-amino-5-chloro-3-fluoro-6′-(trifluoromethyl)-[2,3′-bipyridine]-6-carboxylate]",A (95-100)

# Same assay, conditions: 70 g ai/ha, postemergence, direct seeded rice
row,SMILES,"Visual Growth Reduction (%) 21 Days After Application, SCPJU"
1,"COC(=O)c1nc(-c2ccc(C(F)(F)F)nc2)c(F)c(N)c1Cl [Compound 59, methyl 4-amino-5-chloro-3-fluoro-6′-(trifluoromethyl)-[2,3′-bipyridine]-6-carboxylate]",A (95-100)

# Same assay, conditions: Growth reduction of 50% of plant growth, probit analysis
row,SMILES,"GR50, SCPJU [g ai/ha]"
1,"COC(=O)c1nc(-c2ccc(C(F)(F)F)nc2)c(F)c(N)c1Cl [Compound 59, methyl 4-amino-5-chloro-3-fluoro-6′-(trifluoromethyl)-[2,3′-bipyridine]-6-carboxylate]",<17.5

# Same assay, conditions: Growth reduction of 80% of plant growth, probit analysis
row,SMILES,"GR80, SCPJU [g ai/ha]"
1,"COC(=O)c1nc(-c2ccc(C(F)(F)F)nc2)c(F)c(N)c1Cl [Compound 59, methyl 4-amino-5-chloro-3-fluoro-6′-(trifluoromethyl)-[2,3′-bipyridine]-6-carboxylate]",<17.5

# Test system: ECHSS: including barnyardgrass, (Echinochloa crus-galli), junglerice, (Echinochloa colonum)
# Assay: as above
# Type: in vivo
# Conditions: 35 g ai/ha, postemergence, direct seeded rice
# Excerpt: as §1, §2, §3, §4
row,SMILES,"Visual Growth Reduction (%) 21 Days After Application, ECHSS"
1,"COC(=O)c1nc(-c2ccc(C(F)(F)F)nc2)c(F)c(N)c1Cl [Compound 59, methyl 4-amino-5-chloro-3-fluoro-6′-(trifluoromethyl)-[2,3′-bipyridine]-6-carboxylate]",B (85-94)

# Same assay, conditions: 70 g ai/ha, postemergence, direct seeded rice
row,SMILES,"Visual Growth Reduction (%) 21 Days After Application, ECHSS"
1,"COC(=O)c1nc(-c2ccc(C(F)(F)F)nc2)c(F)c(N)c1Cl [Compound 59, methyl 4-amino-5-chloro-3-fluoro-6′-(trifluoromethyl)-[2,3′-bipyridine]-6-carboxylate]",B (85-94)

# Same assay, conditions: Growth reduction of 50% of plant growth, probit analysis
row,SMILES,"GR50, ECHSS [g ai/ha]"
1,"COC(=O)c1nc(-c2ccc(C(F)(F)F)nc2)c(F)c(N)c1Cl [Compound 59, methyl 4-amino-5-chloro-3-fluoro-6′-(trifluoromethyl)-[2,3′-bipyridine]-6-carboxylate]",3

# Same assay, conditions: Growth reduction of 80% of plant growth, probit analysis
row,SMILES,"GR80, ECHSS [g ai/ha]"
1,"COC(=O)c1nc(-c2ccc(C(F)(F)F)nc2)c(F)c(N)c1Cl [Compound 59, methyl 4-amino-5-chloro-3-fluoro-6′-(trifluoromethyl)-[2,3′-bipyridine]-6-carboxylate]",15

# Test system: LEFSS: sprangletop including Chinese sprangletop (Leptochloa chinensis), green sprangletop (Leptochloa dubia)
# Assay: as above
# Type: in vivo
# Conditions: 35 g ai/ha, postemergence, direct seeded rice
# Excerpt: as §1, §2, §3, §4
row,SMILES,"Visual Growth Reduction (%) 21 Days After Application, LEFSS"
1,"COC(=O)c1nc(-c2ccc(C(F)(F)F)nc2)c(F)c(N)c1Cl [Compound 59, methyl 4-amino-5-chloro-3-fluoro-6′-(trifluoromethyl)-[2,3′-bipyridine]-6-carboxylate]",D (60-74)

# Same assay, conditions: 70 g ai/ha, postemergence, direct seeded rice
row,SMILES,"Visual Growth Reduction (%) 21 Days After Application, LEFSS"
1,"COC(=O)c1nc(-c2ccc(C(F)(F)F)nc2)c(F)c(N)c1Cl [Compound 59, methyl 4-amino-5-chloro-3-fluoro-6′-(trifluoromethyl)-[2,3′-bipyridine]-6-carboxylate]",B (85-94)

# Same assay, conditions: Growth reduction of 50% of plant growth, probit analysis
row,SMILES,"GR50, LEFSS [g ai/ha]"
1,"COC(=O)c1nc(-c2ccc(C(F)(F)F)nc2)c(F)c(N)c1Cl [Compound 59, methyl 4-amino-5-chloro-3-fluoro-6′-(trifluoromethyl)-[2,3′-bipyridine]-6-carboxylate]",27

# Same assay, conditions: Growth reduction of 80% of plant growth, probit analysis
row,SMILES,"GR80, LEFSS [g ai/ha]"
1,"COC(=O)c1nc(-c2ccc(C(F)(F)F)nc2)c(F)c(N)c1Cl [Compound 59, methyl 4-amino-5-chloro-3-fluoro-6′-(trifluoromethyl)-[2,3′-bipyridine]-6-carboxylate]",48
